Results: ChEMBL document CHEMBL3351689, “The discovery of indole full agonists of the neurotensin receptor 1 (NTSR1)” (Bioorg Med Chem Lett, 2014)
pEC50, pIC50: −log10 of the molar value.

biological target: T1, Neurotensin receptor type 1 (Homo sapiens, UniProt P30989); experiment: Antagonist activity at NTSR1 (unknown origin) expressed in CHO cells assessed as inhibition of NT(8-13) peptide-induced change in intracellular Ca2+ level preincubated for 45 mins by FLIPR assay; type: functional, cell-based
T1 sequence (P30989 whole entry): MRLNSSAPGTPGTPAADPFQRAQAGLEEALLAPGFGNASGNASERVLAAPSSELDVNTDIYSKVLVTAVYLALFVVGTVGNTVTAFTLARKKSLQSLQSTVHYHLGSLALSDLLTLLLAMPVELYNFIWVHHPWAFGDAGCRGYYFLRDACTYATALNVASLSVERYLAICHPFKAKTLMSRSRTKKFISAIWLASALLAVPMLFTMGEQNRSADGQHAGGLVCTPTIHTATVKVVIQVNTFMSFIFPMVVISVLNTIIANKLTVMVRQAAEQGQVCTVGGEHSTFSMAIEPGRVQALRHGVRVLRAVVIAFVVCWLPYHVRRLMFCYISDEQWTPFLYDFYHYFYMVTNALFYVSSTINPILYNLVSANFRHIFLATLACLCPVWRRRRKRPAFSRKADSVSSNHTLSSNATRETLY

Row | SMILES | pIC50
1 | COc1cccc(OC)c1-c1cc(C(=O)NC2(C(=O)O)C3CC4CC(C3)CC2C4)nn1-c1ccc(C(=O)N(C)CCCN(C)C)cc1C(C)C (centres undefined) | 8.40
2 | COc1cccc(OC)c1-c1cc(C(=O)NC2(C(=O)O)C3CC4CC(C3)CC2C4)nn1-c1ccnc2cc(Cl)ccc12 (centres undefined) [REMINERTANT] | 7.09

biological target: T1, Neurotensin receptor type 1; experiment: Agonist activity at NTSR1 (unknown origin) expressed in CHO cells assessed as potentiation of NT(8-13) peptide-induced change in intracellular Ca2+ level preincubated for 45 mins by FLIPR assay; type: functional, cell-based

Row | SMILES | pEC50
3 | CC(C)C[C@H](NC(=O)Cn1ccc2cc(-c3cnc4ccccc4c3)ccc21)C(=O)O | 5.69
4 | CC(C)C[C@H](NC(=O)Cn1ccc2ccccc21)C(=O)O | 5.18
5 | CC(C)C[C@H](NC(=O)Cn1ccc2cc(Br)ccc21)C(=O)O | 5.00
6 | CC(C)C[C@H](NC(=O)Cn1ccc2cc(N)ccc21)C(=O)O | 4.59
7 | CC(C)C[C@H](NC(=O)Cn1ccc2cc(-c3ccccc3)ccc21)C(=O)O | 5.03
8 | CC(C)C[C@H](NC(=O)Cn1ccc2cc(-c3cccnc3)ccc21)C(=O)O | 4.81
9 | CC(C)C[C@H](NC(=O)Cn1ccc2cc(-c3cccc4ccccc34)ccc21)C(=O)O | 5.49
10 | CC(C)C[C@H](NC(=O)Cn1ccc2cc(NS(=O)(=O)c3cccc4ccccc34)ccc21)C(=O)O | 5.03
11 | CC(C)C[C@H](NC(=O)Cn1ccc2cc(NC(=O)c3ccnc4ccccc34)ccc21)C(=O)O | 4.26
12 | CC(C)C[C@H](NC(=O)Cn1ccc2cc(-c3cccc4cnccc34)ccc21)C(=O)O | 5.30
13 | CC(C)C[C@H](NC(=O)Cn1ccc2cc(-c3cncc4ccccc34)ccc21)C(=O)O | 5.49
14 | CC(C)C[C@H](NC(=O)Cn1ccc2cc(Nc3ccc4cnccc4c3)ccc21)C(=O)O | 5.11
15 | COc1cccc(CC(=O)Nc2ccc3c(ccn3CC(=O)N[C@@H](CC(C)C)C(=O)O)c2)c1 | 4.62
16 | CC(C)C[C@H](NC(=O)Cn1ccc2cc(N(Cc3ccnc4ccccc34)Cc3ccnc4ccccc34)ccc21)C(=O)O | 5.67
17 | COC(=O)[C@H](CC(C)C)NC(=O)Cn1ccc2cc(-c3cnc4ccccc4c3)ccc21 | < 4.00
18 | CC(C)C[C@@H](CO)NC(=O)Cn1ccc2cc(-c3cnc4ccccc4c3)ccc21 | < 4.00

Row | SMILES | pEC50
19 | CC(C)C[C@H](NC(=O)Cn1ccc2cc(-c3cnc4ccccc4c3)ccc21)c1nn[nH]n1 | 5.29
20 | O=C(O)CNC(=O)Cn1ccc2cc(-c3cnc4ccccc4c3)ccc21 | < 4.00
21 | C[C@H](NC(=O)Cn1ccc2cc(-c3cnc4ccccc4c3)ccc21)C(=O)O | < 4.00
22 | CC(C)[C@H](NC(=O)Cn1ccc2cc(-c3cnc4ccccc4c3)ccc21)C(=O)O | < 4.00
23 | O=C(Cn1ccc2cc(-c3cnc4ccccc4c3)ccc21)N[C@@H](Cc1ccccc1)C(=O)O | 5.36
24 | CC(C)C[C@@H](NC(=O)Cn1ccc2cc(-c3cnc4ccccc4c3)ccc21)C(=O)O | < 4.00
25 | COC(=O)[C@@H](CC(C)C)NC(=O)Cn1ccc2cc(-c3cnc4ccccc4c3)ccc21 | < 4.00
26 | COC(=O)[C@H](CC(C)C)NC(=O)Cn1ccc2cc(-c3cccc4ccccc34)ccc21 | < 4.00
27 | O=C(O)CNC(=O)Cn1ccc2cc(-c3cccc4ccccc34)ccc21 | < 4.00
28 | CC(C)[C@H](NC(=O)Cn1ccc2cc(-c3cccc4ccccc34)ccc21)C(=O)O | < 4.00
29 | CC(C)C[C@@H](NC(=O)Cn1ccc2cc(-c3cccc4ccccc34)ccc21)C(=O)O | < 4.00
30 | COC(=O)[C@@H](CC(C)C)NC(=O)Cn1ccc2cc(-c3cccc4ccccc34)ccc21 | < 4.00
31 | CC(C)C[C@H](NC(=O)Cn1ccc2ccc(-c3cnc4ccccc4c3)cc21)C(=O)O | 5.48
32 | CC(C)C[C@H](NC(=O)Cn1ccc2ccc(-c3cccc4ccccc34)cc21)C(=O)O | 5.55
33 | CC(C)C[C@H](NC(=O)Cn1ccc2ccc(-c3cncc4ccccc34)cc21)C(=O)O | 5.13
34 | CC(C)C[C@H](NC(=O)Cn1ccc2cc(NS(=O)(=O)c3cccc4cccnc34)ccc21)C(=O)O | 5.05
